The source of these data is US4198508A, “Process for preparing 4-substituted imidazo[1,2-a]quinoxalines” (Westwood Pharmaceuticals Inc., priority 1977, dated 1980).

The subject of experiment [1] is cell-mediated immune response to the antigen, Mycobacterium tuberculosis H37Ra. Description: delayed hypersensitivity test. Type of experiment: in vivo, mouse. The settings on record: mice, s.c.; dose to reduce edema of cell-mediated immune response by 60% versus control. Here is the method: The immunosuppressant activities of the compounds of this invention were determined via the hemolysin test in mice and by the delayed hypersensitivity test. The hemolysin test used is that described in Methods in Immunology, edited by D. H. Campbell et al, W. A. Benjamin, New York 1963 pages 172-175, and measures humeral or antibody response. The delayed hypersensitivity test measures the effect of a test compound on the ability of a subject mouse to mount a cell-mediated immune response to the antigen, Mycobacterium tuberculosis H37Ra. The mouse is sensitized to the antigen by subcutaneous administration in the base of the tail. The development of the delayed hypersensitivity response may be measured at any time beginning six days after sensitization but is usually done on the ninth day as follows: The right hind paw is injected with purified protein derivative (tuberculin) while the left hind paw (control) receives physiological saline. Both paw volumes are measured after twenty-four hours and significant increase in the volume of the right hand paw is taken as a measure of an effective delayed hypersensitivity response. All compounds were administered by the subcutaneous route.
The D.H.S. (ED60) mg./kg. s.c. value appearing in column 3 is an expression of the effectiveness of the drug in reducing the edema that accompanies the cell-mediated immune response. […]

The subject of experiment [2] is Trichophyton mentagrophytes. As to the kind of experiment: antifungal activity, agar dilution method. Type of experiment: cell-based, Trichophyton mentagrophytes (ATCC No. 8757 and 9129). The protocol: (§1) Various compounds of this invention display antifungal and anti-yeast activity.
(§2) In Table IX below are listed the antifungal activity of a number of compounds encompassed in the present invention. These were determined by the agar dilution method as described in Chapters 2 and 3 of Methods in Microbiology, Vol. 7B, edited by J. R. Norris and D. W. Ribbons, Academic Press, New York, 1972.
On the technique in general: Agar dilution tests growth on a series of plates holding different concentrations.

The test system of experiment [3] is humeral or antibody response. As to the kind of experiment: hemolysin test in mice. The format is in vivo, mouse. The settings on record: s.c., dose to reduce antibody activity by 50% versus control.
The next experiment deals with rat paw edema. As to the kind of experiment: rat paw edema assay, oral dosing. The format is in vivo. The settings on record: four hours after drug. Here is the method: The anti-inflammatory activity of representative compounds of this invention was determined by the rat paw edema assay both by local administration (Table XI below) and by oral dosing (Table XII below). For the oral dosing, the procedure of C. A. Winter, E. A. Risley and G. W. Nuss, Proc. Soc. Exp. Biol. Med. 111, 544 (1962) was employed with measurement taken four hours after the drug was administered. The local administration tests were carried out similarly except the irritant (carrageenan) and the test compound were injected simultaneously at time zero. Tables XI and XII report the anti-inflammatory activity of the compounds tested as % difference in the edema or swelling as compared with the control. These Tables also give the response in many instances of more than one dose level of the same drug.

The test system of a further experiment is Trichophyton rubrum. Description: antifungal activity, agar dilution method. Type of experiment: cell-based, Trichophyton rubrum (ATCC No. 10218 and 14001). Here is the method: as §1, §2
The subject of a further experiment is Trichophyton ajelloi. As to the kind of experiment: antifungal activity, agar dilution method. The format is cell-based. Here is the method: as §1, §2

On to `FC(F)(F)c1cccc(-c2nc3ccccc3n3ccnc23)c1` [Compound 136], for which the “D.H.S. (ED60)” value in experiment [1] was greater than 50 mg/kg. In addition, in experiment [2], the “Parts Per Million Inhibitions of T. mentagrophytes” value is 100 Parts Per Million. Also, the “HL(ED50)” value in experiment [3] came out at 2.7 mg/kg. In addition, the “%Difference from Control” value is listed as -9% in the experiment on rat paw edema (100 mg/kg) and -25% in the experiment on rat paw edema (400 mg/kg).
As to `O=[N+]([O-])c1ccc(Nc2nc3ccccc3n3ccnc23)cc1` [Compound 189], the “Parts Per Million Inhibitions of T. rubrum” value in the experiment on Trichophyton rubrum was found to be 100 Parts Per Million. The “Parts Per Million Inhibitions of T. ajelloi” value in the experiment on Trichophyton ajelloi is given as 100 Parts Per Million.
